From ChEMBL document CHEMBL1201862, “PubChem BioAssay data set” (2004)
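All cell lines were grown in 96-well plates and treated with compound for 48 hours. GI50: concentration for 50% inhibition of growth.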 Calls of active or inactive are those of the source. Cut-off read from the data, not from the text of the source: active = GI50 up to about 1.1 µM and inactive = higher.

Columns and labels:
Experiment in all cases: NCI-60 cell line screen, 48 h
LOX IMVI = tested on: LOX IMVI
MDA-MB-435 = tested on: MDA-MB-435
EKVX = tested on: EKVX
MOLT-4 = tested on: MOLT-4
A498 = tested on: A498
MDA-MB-231 = tested on: MDA-MB-231
K562 = tested on: K562
OVCAR-5 = tested on: OVCAR-5
SNB-75 = tested on: SNB-75
TK-10 = tested on: TK-10
SN12C = tested on: SN12C
SK-MEL-5 = tested on: SK-MEL-5
786-0 = tested on: 786-0
OVCAR-8 = tested on: OVCAR-8
HCT-15 = tested on: HCT-15
HOP-92 = tested on: HOP-92
NCI-H460 = tested on: NCI-H460
M14 = tested on: M14
SR = tested on: SR
PC-3 = tested on: PC-3

| Compound | GI50 (LOX IMVI) | GI50 (MDA-MB-435) | GI50 (EKVX) | GI50 (MOLT-4) | GI50 (A498) | GI50 (MDA-MB-231) | GI50 (K562) | GI50 (OVCAR-5) | GI50 (SNB-75) | GI50 (TK-10) | GI50 (SN12C) | GI50 (SK-MEL-5) | GI50 (786-0) | GI50 (OVCAR-8) | GI50 (HCT-15) [µM] | GI50 (HOP-92) | GI50 (NCI-H460) | GI50 (M14) | GI50 (SR) | GI50 (PC-3) |
| --- | --- | --- | --- | --- | --- | --- | --- | --- | --- | --- | --- | --- | --- | --- | --- | --- | --- | --- | --- | --- |
| Cc1n[nH]c(=O)n1/N=C/c1ccncc1 | > 100 µM (inactive) | > 100 µM (inactive) | > 100 µM (inactive) | > 100 µM (inactive) | > 100 µM (inactive) | > 100 µM (inactive) | > 100 µM (inactive) | > 100 µM (inactive) | > 100 µM (inactive) | > 100 µM (inactive) | > 100 µM (inactive) | > 100 µM (inactive) | > 100 µM (inactive) | > 100 µM (inactive) | > 100 | > 100 µM (inactive) | > 100 µM (inactive) | > 100 µM (inactive) | – | – |
| CC1=CC(=O)CC2(C)CC[C@@H]3C[C@]12OC3(C)C (stereo not given in full) | > 100 µM (inactive) | – | > 100 µM (inactive) | > 100 µM (inactive) | > 100 µM (inactive) | – | > 100 µM (inactive) | > 100 µM (inactive) | > 100 µM (inactive) | > 100 µM (inactive) | > 100 µM (inactive) | > 100 µM (inactive) | > 100 µM (inactive) | > 100 µM (inactive) | > 100 | > 100 µM (inactive) | > 100 µM (inactive) | > 100 µM (inactive) | > 100 µM (inactive) | – |
| CCCOP(=S)(N1CC1)N1CC1 | > 100 µM (inactive) | – | > 100 µM (inactive) | > 100 µM (inactive) | > 100 µM (inactive) | – | > 100 µM (inactive) | > 100 µM (inactive) | 48.3 µM (inactive) | > 100 µM (inactive) | > 100 µM (inactive) | > 100 µM (inactive) | > 100 µM (inactive) | > 100 µM (inactive) | > 100 | > 100 µM (inactive) | > 100 µM (inactive) | > 100 µM (inactive) | > 100 µM (inactive) | – |
| COc1cc(C(=O)Nc2nnc(S(N)(=O)=O)s2)cc(OC)c1OC | > 100 µM (inactive) | > 100 µM (inactive) | > 100 µM (inactive) | > 100 µM (inactive) | – | > 100 µM (inactive) | > 100 µM (inactive) | > 100 µM (inactive) | – | > 100 µM (inactive) | > 100 µM (inactive) | > 100 µM (inactive) | > 100 µM (inactive) | > 100 µM (inactive) | > 100 | 65.6 µM (inactive) | > 100 µM (inactive) | > 100 µM (inactive) | > 100 µM (inactive) | – |
| CCOC(=O)Cn1nnc2ccc(Nc3nc4ccccc4nc3-c3ccccc3)cc21 | > 100 µM (inactive) | > 100 µM (inactive) | > 100 µM (inactive) | > 100 µM (inactive) | > 100 µM (inactive) | – | > 100 µM (inactive) | > 100 µM (inactive) | 30.8 µM (inactive) | 25.4 µM (inactive) | > 100 µM (inactive) | > 100 µM (inactive) | 32.3 µM (inactive) | > 100 µM (inactive) | > 100 | > 100 µM (inactive) | 48.6 µM (inactive) | 95.5 µM (inactive) | > 100 µM (inactive) | > 100 µM (inactive) |
| CN(C)/C=C/C(=O)c1cccc(C(=O)/C=C/N(C)C)n1 | > 100 µM (inactive) | – | > 100 µM (inactive) | > 100 µM (inactive) | > 100 µM (inactive) | – | > 100 µM (inactive) | > 100 µM (inactive) | > 100 µM (inactive) | > 100 µM (inactive) | > 100 µM (inactive) | > 100 µM (inactive) | > 100 µM (inactive) | 80.4 µM (inactive) | > 100 | > 100 µM (inactive) | > 100 µM (inactive) | > 100 µM (inactive) | > 100 µM (inactive) | – |
